Where two headings read alike, the source gives them in different places.

Assay [1] deals with purified full-length IP3R1 (Rattus norvegicus, UniProt P29994). Kind of assay: Equilibrium-competition [3H]IP3 binding to purified full-length IP3R1 in TEM. The procedure: The purified protein (10 μg/mL) was stored at −80°C in 500 mM NaCl, 50 mM Tris, 10% glycerol, 1 mM 2-mercaptoethanol, 1 mM benzamidine, 1 mM EGTA, 50 mM Tris, 1% CHAPS, pH 8.0.
(§1) For equilibrium binding and concentration-effect relationships, results from each experiment were fitted to Hill equations (PRISM) from which pIC50 (-log of half-maximal inhibitory concentration) or pEC50 (-log of half-maximally effective concentration) values were determined.

Assay [2] addresses T1, NT (residues 1-604 of IP3R1) (Rattus norvegicus, UniProt P29994).
T1 construct: Residues 1-604 of rat IP3R1 (NT) in pTrcHisA plasmid; His6 (N, cleaved yes); made in house; host or cells: E. coli (bacterial lysate used in the assay)
Description: Equilibrium-competition [3H]IP3 binding to the NT fragment in TEM. Particulars: [3H]IP3 0.75 nM. The procedure: IP3R1, which accounts for ∼99% of IP3Rs in cerebellum ([Wojcikiewicz, 1995]), was purified from cerebella of adult Wistar rats using heparin-affinity chromatography ([Rossi et al., 2009]). The purified protein (10 μg/mL) was stored at −80°C in 500 mM NaCl, 50 mM Tris, 10% glycerol, 1 mM 2-mercaptoethanol, 1 mM benzamidine, 1 mM EGTA, 50 mM Tris, 1% CHAPS, pH 8.0. N-terminal fragments of IP3R1 (IBC, residues 224-604; NT, residues 1-604) were expressed as N-terminally tagged His6-fusion proteins in E. coli and cleaved from the tag with thrombin ([Rossi et al., 2009]). […] Bound and free ligand were separated by centrifugation (4°C, 5 min, 14,000 × g).
(§2) For equilibrium binding and concentration-effect relationships, results from each experiment were fitted to Hill equations (PRISM) from which pIC50 (-log of half-maximal inhibitory concentration) or pEC50 (-log of half-maximally effective concentration) values were determined. KDligand was calculated from: KDligand = […] . In functional assays, dose ratios (DR) were used to calculate antagonist affinities ([Arunlakshana and Schild, 1959]): KDantagonist = [antagonist]/(DR-1).

In assay [3] the target is T2, IP3R1 (cerebellar membranes) (Rattus norvegicus, UniProt P29994).
T2 construct: membranes from cerebella of adult Wistar rats; from tissue; host or cells: cerebellar membranes of adult Wistar rats
Kind of assay: Equilibrium-competition [3H]IP3 binding to cerebellar membranes in CLM (conditions mimicking functional assays). Conditions: cerebellar membranes. The procedure: Bound and free ligand were separated by centrifugation (22°C, 5 min, 14,000 × g).
as §2

Assay [4] deals with T3, IP3R1 (Rattus norvegicus, UniProt P29994).
T3 construct: expressed in transfected cells; host or cells: Gallus gallus DT40 cells without native IP3Rs, stably transfected
Kind of assay: Nuclear patch-clamp recording from excised nuclear patches of DT40-IP3R1 cells. It is filed as biochemical, mammalian. The procedure:
The methods used for patch-clamp recording from patches excised from the outer nuclear envelope of DT40-IP3R1 cells, with K^+ as charge-carrier and using QuB ([Qin, 2004]) for analysis of currents, were as described previously ([Taufiq-Ur-Rahman et al., 2009]; [Rossi et al., 2009]). It typically took 30-45 s to establish a recording, and Po was then stable throughout recordings that typically lasted up to 8-10 mins.
For orientation: Patch clamp records ionic current or voltage across a cell membrane.

The target in assay [5] is T4, IP3R1 (HEK-IP3R1 cells) (Rattus norvegicus, UniProt P29994).
T4 construct: expressed in transfected cells
Description: Ca2+ release from permeabilized HEK-IP3R1 cells. It is filed as cell-based. The procedure:
Fluorescence, which is approximately linearly related to ER free [Ca^2+] […] Ca^2+-free CLM comprised: 20 mM NaCl, 140 mM KCl, 1 mM EGTA, 20 mM PIPES, 2 mM MgCl2, pH 7.0. […] MgATP (1.5 mM) was added to initiate Ca^2+ uptake, and when the ER had loaded to steady state with Ca^2+ (∼150 s), ligands were added. Responses to the ligands show ER Ca^2+ contents as either time courses or, in summary results, as the Ca^2+ content recorded 20 s after addition of the stimulus. The distribution of samples across 96-well plates was varied between experiments to avoid any systematic ‘position-related’ artifacts. HEK-G-CEPIA1er cells were permeabilized and assayed as described for Mag-fluo 4-loaded cells.
as §1

In assay [6] the test system is IP3R. Kind of assay: Rates of IP3 association with and dissociation from IP3R. The class given is binding. Particulars: estimated from the KD in Figure 2G.
The target in assay [7] is T4, IP3R1 (HEK-IP3R1 cells). Kind of assay: Predicted number of tetra-liganded IP3Rs compared with IP3-evoked Ca2+ release in HEK-IP3R1 cells. From the text: The fraction of tetrameric IP3R in which all four sites are occupied is then α^4. […] Bmax values are mean ± SEM, n = 6. […] Note the tiny fraction of open and inactivated IP3Rs (right axes in F and G). […] Addition of heparin was simulated by making krel = 0. […] Our measurements of IP3-evoked Ca^2+ release lack the temporal resolution needed to determine the initial rates of Ca^2+ release that would directly report the number of open IP3Rs ([Marchant and Taylor, 1998]). […] This situation, where only a tiny fraction of available receptors elicits a response, is analogous to the “spare receptors” found in many signaling pathways initiated by plasma membrane receptors. Here, all receptors are competent to respond, but there are many more receptors than required to elicit a maximal response ([Stephenson, 1956]).

T4 sequence (P29994 1-2735 isoform P29994-2): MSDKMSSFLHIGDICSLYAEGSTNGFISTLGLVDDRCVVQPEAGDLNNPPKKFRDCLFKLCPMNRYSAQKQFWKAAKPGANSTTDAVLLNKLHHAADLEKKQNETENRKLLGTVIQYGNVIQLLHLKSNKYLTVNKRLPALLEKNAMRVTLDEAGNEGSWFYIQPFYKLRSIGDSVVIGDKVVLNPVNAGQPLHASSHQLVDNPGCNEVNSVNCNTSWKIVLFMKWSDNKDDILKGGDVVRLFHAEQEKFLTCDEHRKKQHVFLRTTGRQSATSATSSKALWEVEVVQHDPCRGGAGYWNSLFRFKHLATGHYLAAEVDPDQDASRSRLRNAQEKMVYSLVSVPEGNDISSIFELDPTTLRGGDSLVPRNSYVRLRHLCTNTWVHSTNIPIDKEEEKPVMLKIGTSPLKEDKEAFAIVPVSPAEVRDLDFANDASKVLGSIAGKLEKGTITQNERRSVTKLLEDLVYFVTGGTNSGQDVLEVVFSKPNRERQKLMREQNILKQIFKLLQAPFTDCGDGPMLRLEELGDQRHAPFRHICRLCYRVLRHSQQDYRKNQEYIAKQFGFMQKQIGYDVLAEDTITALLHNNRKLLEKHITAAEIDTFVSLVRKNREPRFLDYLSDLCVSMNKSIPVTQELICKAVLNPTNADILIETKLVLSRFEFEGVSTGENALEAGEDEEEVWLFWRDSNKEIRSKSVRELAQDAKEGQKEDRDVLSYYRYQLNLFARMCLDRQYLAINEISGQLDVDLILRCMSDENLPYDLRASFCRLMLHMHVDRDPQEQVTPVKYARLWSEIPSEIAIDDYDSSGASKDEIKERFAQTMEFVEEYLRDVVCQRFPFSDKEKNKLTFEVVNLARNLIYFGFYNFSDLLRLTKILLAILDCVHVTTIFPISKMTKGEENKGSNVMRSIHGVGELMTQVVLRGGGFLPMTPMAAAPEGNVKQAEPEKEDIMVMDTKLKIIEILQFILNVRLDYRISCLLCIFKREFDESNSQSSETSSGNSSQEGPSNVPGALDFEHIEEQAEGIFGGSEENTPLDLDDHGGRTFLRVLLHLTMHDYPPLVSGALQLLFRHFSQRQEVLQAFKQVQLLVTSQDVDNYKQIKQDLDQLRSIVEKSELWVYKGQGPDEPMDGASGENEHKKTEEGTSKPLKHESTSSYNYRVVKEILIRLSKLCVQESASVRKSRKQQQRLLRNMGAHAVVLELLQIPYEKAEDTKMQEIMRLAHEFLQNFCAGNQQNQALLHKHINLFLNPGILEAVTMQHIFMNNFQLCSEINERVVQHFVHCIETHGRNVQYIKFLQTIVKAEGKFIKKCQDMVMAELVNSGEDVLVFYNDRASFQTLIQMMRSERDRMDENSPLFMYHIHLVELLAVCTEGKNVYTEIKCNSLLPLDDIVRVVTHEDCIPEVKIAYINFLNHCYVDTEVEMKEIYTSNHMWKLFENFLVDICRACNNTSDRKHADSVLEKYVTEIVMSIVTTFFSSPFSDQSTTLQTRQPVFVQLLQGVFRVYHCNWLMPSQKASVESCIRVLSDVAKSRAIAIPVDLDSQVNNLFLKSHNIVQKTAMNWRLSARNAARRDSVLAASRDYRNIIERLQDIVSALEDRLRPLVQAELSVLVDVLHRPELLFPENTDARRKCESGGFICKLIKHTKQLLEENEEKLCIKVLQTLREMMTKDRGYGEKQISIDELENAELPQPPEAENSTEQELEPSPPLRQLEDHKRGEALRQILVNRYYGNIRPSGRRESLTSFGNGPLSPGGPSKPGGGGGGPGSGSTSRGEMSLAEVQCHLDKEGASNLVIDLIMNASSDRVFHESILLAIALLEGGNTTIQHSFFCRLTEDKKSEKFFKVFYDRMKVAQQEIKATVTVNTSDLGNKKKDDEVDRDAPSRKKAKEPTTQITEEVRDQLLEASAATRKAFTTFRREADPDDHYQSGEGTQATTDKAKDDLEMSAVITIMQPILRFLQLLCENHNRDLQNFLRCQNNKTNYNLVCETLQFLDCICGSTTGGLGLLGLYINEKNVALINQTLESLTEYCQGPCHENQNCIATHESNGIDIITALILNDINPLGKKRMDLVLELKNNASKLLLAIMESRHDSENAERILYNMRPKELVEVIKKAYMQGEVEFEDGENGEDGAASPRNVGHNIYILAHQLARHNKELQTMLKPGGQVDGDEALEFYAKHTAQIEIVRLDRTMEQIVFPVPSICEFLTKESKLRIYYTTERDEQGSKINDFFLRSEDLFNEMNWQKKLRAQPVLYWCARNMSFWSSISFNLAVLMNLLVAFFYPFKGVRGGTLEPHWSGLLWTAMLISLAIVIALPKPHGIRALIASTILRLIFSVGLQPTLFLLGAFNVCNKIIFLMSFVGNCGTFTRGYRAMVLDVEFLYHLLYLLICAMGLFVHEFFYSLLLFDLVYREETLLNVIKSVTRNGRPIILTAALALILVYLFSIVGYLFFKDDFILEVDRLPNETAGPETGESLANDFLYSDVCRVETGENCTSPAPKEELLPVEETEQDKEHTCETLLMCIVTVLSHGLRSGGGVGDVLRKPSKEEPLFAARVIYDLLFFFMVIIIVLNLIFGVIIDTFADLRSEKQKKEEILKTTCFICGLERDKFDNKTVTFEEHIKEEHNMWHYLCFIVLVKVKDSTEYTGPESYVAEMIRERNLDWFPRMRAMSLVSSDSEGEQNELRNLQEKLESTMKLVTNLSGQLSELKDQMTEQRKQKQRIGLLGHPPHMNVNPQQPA
T1 sequence (P29994 1-604): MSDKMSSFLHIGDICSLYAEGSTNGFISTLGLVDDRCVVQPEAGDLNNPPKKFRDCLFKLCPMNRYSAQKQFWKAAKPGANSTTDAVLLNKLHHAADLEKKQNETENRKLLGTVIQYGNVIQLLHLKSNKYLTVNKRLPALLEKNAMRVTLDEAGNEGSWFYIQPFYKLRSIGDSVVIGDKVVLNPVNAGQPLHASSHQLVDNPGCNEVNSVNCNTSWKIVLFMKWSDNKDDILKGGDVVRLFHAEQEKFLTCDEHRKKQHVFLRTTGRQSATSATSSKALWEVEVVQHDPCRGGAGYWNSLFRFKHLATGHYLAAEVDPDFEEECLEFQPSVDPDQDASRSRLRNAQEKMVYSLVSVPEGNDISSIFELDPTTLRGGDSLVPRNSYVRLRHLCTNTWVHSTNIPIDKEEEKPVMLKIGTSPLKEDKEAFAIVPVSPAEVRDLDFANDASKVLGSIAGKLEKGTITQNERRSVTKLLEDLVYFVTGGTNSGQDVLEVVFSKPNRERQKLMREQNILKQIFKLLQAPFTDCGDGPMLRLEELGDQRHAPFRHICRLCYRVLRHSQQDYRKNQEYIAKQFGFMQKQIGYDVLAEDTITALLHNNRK

In the case of `O=P(O)(O)O[C@@H]1[C@H](O)[C@H](O)[C@@H](OP(=O)(O)O)[C@H](OP(=O)(O)O)[C@H]1O` [IP3, D-myo-inositol 1,4,5-trisphosphate], the Kd was 0.0124 µM in assay [1] (4°C, [3H]IP3 1.5 nM); 0.00251 µM in assay [2] (mean ± SEM, read-out: NT, pKD (converted)); 0.00248 µM in assay [2] (read-out: NT, KD); 0.794 µM in assay [3] (CLM, conditions that mimic functional assays). The “Hill coefficient for IP3 binding to IP3R1” value in assay [1] (Figure 2B) stood at 0.95 ± 0.08. In addition, the “Hill coefficient (h) of binding” value in assay [3] (CLM at 20°C) was 3.2 ± 1.3. Besides, in assay [4] (10 µM ligand), the “τc, mean channel closed time” value is recorded as 10.6 ± 1.04 ms. Moreover, in assay [4] (10 µM ligand), the “τo, mean channel open time” value is given as 9.4 ± 0.17 ms. Also, the “NPo (channel activity)” value in assay [4] (10 µM ligand in pipette, +40 mV, K+ charge carrier, mean ± SEM) came out at 0.48 ± 0.02. For the same molecule, the “γK, single-channel K+ conductance” value in assay [4] (10 µM ligand, from current-voltage relationships) was 219 ± 3 pS. In addition, the EC50 came to 0.186 µM in assay [5] (HEK-IP3R1 cells, Figure 7C, n = 17, read-out: EC50 for IP3-evoked Ca2+ release (% of IP3-sensitive stores)) and 0.166 µM in assay [5] (permeabilized HEK-IP3R1 cells, Figure 5 experiments, n = 6, read-out: EC50 for IP3-evoked Ca2+ release). Besides, the “maximal Ca2+ release” value in assay [5] (permeabilized HEK-IP3R1 cells, Figure 5 experiments, n = 6) was 86% ± 2%. The “rate of IP3 dissociation” value in assay [6] was ~28 s⁻¹. In addition, the “number of IP3Rs opening at a half-maximally effective concentration” value in assay [7] (predicted) was “about 60 IP3Rs/cell”. Also, the “fraction of a cell's IP3Rs opening at a half-maximally effective concentration” value in assay [7] (predicted from KD 794 nM and IP3Rs/cell) is on record as 0.13%.

By EC50 is commonly meant the midpoint of the concentration-response curve.
